The compounds below were run against T1, hKv7.2/hKv7.3 (Homo sapiens, UniProt O43525+O43526) (assay: Thallium influx assay for potassium channel activation). Details: HEK-hKv7.2/hKv7.3 cells; FLIPR Potassium Assay kit; AUC readout normalized to a reference compound.
T1 construct: P2A self-cleaving peptide (between Kv7.3 and Kv7.2; the remnant would stay on the upstream protein) (C); expressed in transfected cells
Assay type: cell-based
Protocol: (§1) A synthesized cDNA fragment encoding human Kv7.3 and human Kv7.2 separated by a P2A sequence was inserted into the pcDNA5/FRT/TO vector using the BamHI and XhoI restriction sites. The construct was then transfected into HEK Flp-In 293 cells using Lipofectamine2000. The transfected cells were grown for 48 hours in DMEM containing 10% (v/v) FBS and 1% PenStrep and subsequently maintained under selection in DMEM containing 10% (v/v) FBS, 1% PenStrep and 200 ug/mL Hygromycin B at 37° C. in a humidified atmosphere of 5% CO2.
The thallium influx assay for potassium channel activation was performed analogously to a published procedure (C. D. Weaver, et al., J Biomol Screen 2004, 9, 671-677) using the FLIPR Potassium Assay kit (Molecular Devices). HEK-hKv7.2/hKv7.3 cells were plated onto 96-well, black-walled, clear-bottomed culture plates (Corning, Acton, Mass., USA) at a density of 80,000 cells/well (100 μl/well) if the cells were assayed the following day, or 40,000 cells/well (100 μl/well) if the cells were assayed two days after seeding.
On the assay day, the medium was removed after which 50 uL/well of test compound diluted to 2× final concentration in HBSS containing 20 mM HEPES, and 50 uL/well of 2× dye load buffer were added. The cells were then incubated for 60 min at room temperature in the dark. Chloride-free stimulation buffer containing Tl^+ and K^+ at 5× final concentration (5× concentration: 5 mM in both cases) and test compound at 1× final concentration, were prepared during the incubation. The cells were then assayed in a FDSS7000EX Functional Drug Screening System (Hamamatsu). Following 60 sec of baseline fluorescence signal reading at 0.1 Hz, and 10 sec at 1 Hz, 25 uL/well of stimulation buffer were added and the fluorescence continuously measured for 50 sec at 1 Hz followed, by 4 min at 0.1 Hz. Compound effect was quantified using AUC as readout and normalized to a reference compound, which was included on each plate.

| Structure (SMILES) | EC50 |
| --- | --- |
| COC[C@H](NC(=O)C[C@@](C)(O)C1(F)CC1)c1cccc(OC(F)(F)F)c1 (single isomer, unassigned) [Example 36b] | 16 µM |
| O=C(CC1(O)CC(F)(F)C1)N[C@@H](COC1CC1)c1cccc(OC(F)F)c1 [Example 29, (R)—N-(2-cyclopropoxy-1-(3-(difluoromethoxy)phenyl)ethyl)-2-(3,3-difluoro-1-hydroxycyclobutyl)acetamide] | 5.4 µM |
| O=C(CC(O)C1CC(F)(F)C1)N[C@@H](COC(F)F)c1cccc(OC(F)(F)F)c1 (single isomer, unassigned) [Example 6a] | 2.5 µM |
| CC1(C)CC(C(O)CC(=O)N[C@@H](COC(F)F)c2cccc(OC(F)F)c2)C1 (single isomer, unassigned) [Example 15b] | 0.65 µM |
| CCC[C@H](NC(=O)C[C@H](O)C(C)(C)C)c1cccc(OC(F)F)c1 [Example 20, (S)—N—((S)-1-(3-(difluoromethoxy)phenyl)butyl)-3-hydroxy-4,4-dimethylpentanamide] | 1.5 µM |
| O=C(CC(O)C1(C(F)(F)F)CC1)N[C@@H](COC(F)F)c1cccc(OC(F)F)c1 (single isomer, unassigned) [Example 3a] | 2.8 µM |
| CCC1(C(O)CC(=O)N[C@@H](COC(F)F)c2cccc(OC(F)F)c2)CC1 (single isomer, unassigned) [Example 8a] | 4.8 µM |
| O=C(CC(O)C1(C(F)(F)F)CC1)N[C@@H](COC(F)F)c1cccc(OC(F)(F)F)c1 (single isomer, unassigned) [Example 4a] | 1.7 µM |
| CC(O)(CC(=O)N[C@@H](COC(F)F)c1cccc(OC(F)(F)F)c1)C1CC1 (single isomer, unassigned) [Example 11a] | 5.4 µM |
| O=C(CC(O)C1(C(F)(F)F)CC1)N[C@@H](COC(F)F)c1cccc(OC(F)F)c1 (single isomer, unassigned) [Example 3b] | 2.4 µM |
| CC(C)(C)[C@@H](O)CC(=O)N[C@@H](CC(F)F)c1cccc(OC(F)F)c1 [Example 22, (S)—N—((S)-1-(3-(difluoromethoxy)phenyl)-3,3-difluoropropyl)-3-hydroxy-4,4-dimethylpentanamide] | 4.5 µM |

What follows are compounds tested against T1, hKv7.2/hKv7.3 (assay: Automated whole cell patch-clamp functional test of HEK-hKv7.2/hKv7.3 cell line). Details: stable HEK-hKv7.2/hKv7.3 cell line.
Assay type: cell-based
Protocol: as §1

| Structure (SMILES) | effect on Kv7-current |
| --- | --- |
| O=C1c2ccccc2C(Cc2ccncc2)(Cc2ccncc2)c2ccccc21 [XE991] | sensitive |
| CCOC(=O)Nc1ccc(NCc2ccc(F)cc2)cc1N [Retigabine, N-(2-amino-4-(4-fluorobenzylamino)-phenyl) carbamic acid ethyl ester] | potentiated |

Reference: US11548849B2, “Alcohol derivatives as KV7 potassium channel openers” (H. Lundbeck A/S, priority 2019, dated 2023)
